In patent US20220323406A1, “METHODS AND COMPOSITIONS FOR DIFFERENTIATING STEM CELLS” (Massachusetts Institute of Technology, priority 2019, published 2022):

Tests used:
[1] = tested on: ENR+CD organoids (ISC to Paneth cell differentiation); assay: Primary screen: CCh-stimulated lysozyme secretion LYZ.S, 2.5-D 384-well ENR+CD organoid differentiation; type: cell-based, mouse; settings: primary screen
Excerpt: (§1) High-throughput screening.

ENR+CD organoids = assay: Primary screen: ATP (CellTiter-Glo 3D, CTG) cell number/viability, 2.5-D 384-well ENR+CD organoids;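 further: compounds given at plating and again on day 3 over a 6-day differentiation from ENR+CV stem-cell-enriched precursors, ATP measured on day 6, plate median as control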
[2] = tested on: ENR+CD organoids (ISC to Paneth cell differentiation); assay: Primary screen: basal (non-stimulated) lysozyme secretion LYZ.NS, 2.5-D 384-well ENR+CD organoid differentiation; type: cell-based, mouse
Excerpt: as §1

[3] = primary screen, dose 0.08 uM, standard z score
[4] = primary screen, dose 0.40 uM, standard z score
[5] = primary screen, dose 2.00 uM, standard z score
[6] = primary screen, dose 10.00 uM, standard z score
[7] = primary screen; dose 0.08 uM; FC vs plate median
[8] = primary screen; dose 0.40 uM; FC vs plate median
[9] = primary screen; dose 2.00 uM; FC vs plate median
[10] = primary screen; dose 10.00 uM; FC vs plate median
[11] = primary screen, standard z score, dose 0.08 uM
[12] = primary screen, standard z score, dose 0.40 uM
[13] = primary screen, standard z score, dose 2.00 uM
[14] = primary screen, standard z score, dose 10.00 uM
[15] = primary screen, dose 0.08 uM, FC relative to plate median
[16] = primary screen, dose 0.40 uM, FC relative to plate median
[17] = primary screen, dose 2.00 uM, FC relative to plate median
[18] = primary screen, dose 10.00 uM, FC relative to plate median

SMILES	Dose.FC.LYZ.S ([1]; dose 0.08 uM)	Dose.FC.LYZ.S ([1]; dose 0.40 uM)	Dose.FC.LYZ.S ([1]; dose 2.00 uM)	Dose.FC.LYZ.S ([1]; dose 10.00 uM)	Dose.FC.CTG (ENR+CD organoids; primary screen, dose 0.08 uM)	Dose.FC.CTG (ENR+CD organoids; primary screen, dose 0.40 uM)	Dose.FC.CTG (ENR+CD organoids; primary screen, dose 2.00 uM)	Dose.FC.CTG (ENR+CD organoids; primary screen, dose 10.00 uM)	Dose.FC.LYZ.NS ([2]; primary screen, dose 0.08 uM)	Z.LYZ.NS (standard z score) ([2]; primary screen, dose 0.08 uM)	Dose.FC.LYZ.NS ([2]; primary screen, dose 0.40 uM)	Z.LYZ.NS (standard z score) ([2]; primary screen, dose 0.40 uM)	Dose.FC.LYZ.NS ([2]; primary screen, dose 2.00 uM)	Z.LYZ.NS (standard z score) ([2]; primary screen, dose 2.00 uM)	Dose.FC.LYZ.NS ([2]; primary screen, dose 10.00 uM)	Z.LYZ.NS (standard z score) ([2]; primary screen, dose 10.00 uM)	further results
C[C@]1(c2nc3c(C(N)=O)cccc3[nH]2)CCCN1 [Veliparib (ABT-888)]	0.105 log2 fold change	0.179 log2 fold change	−0.016 log2 fold change	−0.136 log2 fold change	0.128 log2 fold change	0.055 log2 fold change	−0.024 log2 fold change	−0.218 log2 fold change	0.075 log2 fold change	0.649	0.139 log2 fold change	1.211	0.023 log2 fold change	0.203	−0.062 log2 fold change	−0.537	Z.CTG (standard z score) (ENR+CD organoids; primary screen, dose 0.08 uM): 0.307; Z.CTG (standard z score) (ENR+CD organoids; primary screen, dose 0.40 uM): 0.132; Z.CTG (standard z score) (ENR+CD organoids; primary screen, dose 2.00 uM): −0.057; Z.CTG (standard z score) (ENR+CD organoids; primary screen, dose 10.00 uM): −0.521
CC[C@H](NC(=O)[C@H](C)NC)C(=O)N1C[C@@H](O)C[C@H]1Cc1c(-c2[nH]c3cc(F)ccc3c2C[C@@H]2C[C@H](O)CN2C(=O)[C@H](CC)NC(=O)[C@H](C)NC)[nH]c2cc(F)ccc12 [Birinapant]	0.075 log2 fold change	0.103 log2 fold change	0.011 log2 fold change	−0.080 log2 fold change	−0.257 log2 fold change	0.095 log2 fold change	0.227 log2 fold change	0.123 log2 fold change	0.032 log2 fold change	0.281	−0.012 log2 fold change	−0.102	0.036 log2 fold change	0.317	−0.029 log2 fold change	−0.256	–
O=C(Oc1cc(S(=O)(=O)c2ccccc2)ccc1[N+](=O)[O-])c1ccc(Cl)cc1 [BTB06584]	0.222 log2 fold change	0.042 log2 fold change	0.039 log2 fold change	0.019 log2 fold change	0.275 log2 fold change	0.288 log2 fold change	−0.180 log2 fold change	0.199 log2 fold change	0.091 log2 fold change	0.795	0.025 log2 fold change	0.214	0.024 log2 fold change	0.206	−0.031 log2 fold change	−0.268	Z.CTG (standard z score) (ENR+CD organoids; primary screen, dose 0.08 uM): 0.657; Z.CTG (standard z score) (ENR+CD organoids; primary screen, dose 0.40 uM): 0.688; Z.CTG (standard z score) (ENR+CD organoids; primary screen, dose 2.00 uM): −0.431; Z.CTG (standard z score) (ENR+CD organoids; primary screen, dose 10.00 uM): 0.475
FC(F)(F)c1ccc(/C=C/c2nc(COc3ccc(CCCCn4ccnn4)cc3)co2)cc1 [Mubritinib (TAK 165)]	–	–	–	–	–	–	–	–	–	–	–	–	–	–	–	–	Dose.FC.LYZ.S ([1]; dose 0.08 uM, FC vs plate median): −0.119 log2 fold change; Dose.FC.LYZ.S ([1]; dose 0.40 uM, FC vs plate median): −0.154 log2 fold change; Dose.FC.LYZ.S ([1]; dose 2.00 uM, FC vs plate median): −0.299 log2 fold change; Dose.FC.LYZ.S ([1]; dose 10.00 uM, FC vs plate median): −0.294 log2 fold change; Z.CTG (ENR+CD organoids; [3]): −1.252; Z.CTG (ENR+CD organoids; [4]): −0.812; Z.CTG (ENR+CD organoids; [5]): −1.265; Z.CTG (ENR+CD organoids; [6]): −1.240; Dose.FC.CTG (ENR+CD organoids; [7]): −0.524 log2 fold change; Dose.FC.CTG (ENR+CD organoids; [8]): −0.340 log2 fold change; Dose.FC.CTG (ENR+CD organoids; [9]): −0.530 log2 fold change; Dose.FC.CTG (ENR+CD organoids; [10]): −0.519 log2 fold change; Z.LYZ.NS [2, 3]: −0.500; Z.LYZ.NS [2, 4]: −1.687; Z.LYZ.NS [2, 5]: −1.950; Z.LYZ.NS [2, 6]: −2.092; Dose.FC.LYZ.NS [2, 7]: −0.057 log2 fold change; Dose.FC.LYZ.NS [2, 8]: −0.194 log2 fold change; Dose.FC.LYZ.NS [2, 9]: −0.224 log2 fold change; Dose.FC.LYZ.NS [2, 10]: −0.240 log2 fold change
Cn1cc(C2=C(c3cn(C4CCN(Cc5ccccn5)CC4)c4ccccc34)C(=O)NC2=O)c2ccccc21 [Enzastaurin (LY317615)]	0.109 log2 fold change	0.251 log2 fold change	0.053 log2 fold change	−0.226 log2 fold change	0.236 log2 fold change	0.475 log2 fold change	0.251 log2 fold change	−0.081 log2 fold change	0.085 log2 fold change	–	0.131 log2 fold change	–	0.053 log2 fold change	–	−0.116 log2 fold change	–	Z.CTG (ENR+CD organoids; [11]): 0.565; Z.CTG (ENR+CD organoids; [12]): 1.135; Z.CTG (ENR+CD organoids; [13]): 0.600; Z.CTG (ENR+CD organoids; [14]): −0.194; Z.LYZ.NS [2, 11]: 0.744; Z.LYZ.NS [2, 12]: 1.143; Z.LYZ.NS [2, 13]: 0.458; Z.LYZ.NS [2, 14]: −1.012
N#CC1(c2ccc(NC(=O)c3cccnc3NCc3ccncc3)cc2)CCCC1 [Apatinib]	0.173 log2 fold change	0.142 log2 fold change	0.112 log2 fold change	0.075 log2 fold change	0.223 log2 fold change	0.302 log2 fold change	0.270 log2 fold change	0.218 log2 fold change	0.103 log2 fold change	0.897	0.038 log2 fold change	0.327	0.076 log2 fold change	0.660	0.012 log2 fold change	0.101	–
CC[C@@H]1C(=O)N(C)c2cnc(Nc3ccc(C(=O)NC4CCN(C)CC4)cc3OC)nc2N1C1CCCC1 [BI 2536]	−0.163 log2 fold change	−0.220 log2 fold change	−0.224 log2 fold change	−0.185 log2 fold change	0.029 log2 fold change	−0.534 log2 fold change	−0.511 log2 fold change	−1.028 log2 fold change	−0.104 log2 fold change	−0.907	−0.129 log2 fold change	−1.121	−0.134 log2 fold change	−1.168	−0.109 log2 fold change	−0.953	–
Cc1cc2c(cc1CC(=O)c1sccc1S(=O)(=O)Nc1onc(C)c1Cl)OCO2 [Sitaxentan sodium]	–	–	–	–	–	–	–	–	–	–	–	–	–	–	–	–	Dose.FC.LYZ.S ([1]; dose 0.08 uM, FC relative to plate median): −0.017 log2 fold change; Dose.FC.LYZ.S ([1]; dose 0.40 uM, FC relative to plate median): −0.028 log2 fold change; Dose.FC.LYZ.S ([1]; dose 2.00 uM, FC relative to plate median): 0.136 log2 fold change; Dose.FC.LYZ.S ([1]; dose 10.00 uM, FC relative to plate median): −0.047 log2 fold change; Dose.FC.CTG (ENR+CD organoids; [15]): 0.095 log2 fold change; Dose.FC.CTG (ENR+CD organoids; [16]): −0.200 log2 fold change; Dose.FC.CTG (ENR+CD organoids; [17]): −0.096 log2 fold change; Dose.FC.CTG (ENR+CD organoids; [18]): −0.100 log2 fold change; Dose.FC.LYZ.NS [2, 15]: 0.094 log2 fold change; Z.LYZ.NS [2, 3]: 0.816; Dose.FC.LYZ.NS [2, 16]: −0.052 log2 fold change; Z.LYZ.NS [2, 4]: −0.455; Dose.FC.LYZ.NS [2, 17]: 0.090 log2 fold change; Z.LYZ.NS [2, 5]: 0.782; Dose.FC.LYZ.NS [2, 18]: −0.038 log2 fold change; Z.LYZ.NS [2, 6]: −0.332
